{"source": "patent US8598132B2", "about": "“Glycosylated indolocarbazoles, method for obtaining same and uses thereof” (Universidad de Oviedo, priority 2008, dated 2013)", "key": {"[1]": {"tested_on": "HT29 (colon)", "experiment": "SRB anti-tumour (growth inhibition) assay, HT29", "type": "cell-based", "settings": "Homo sapiens, HT-29, 48 h exposure, read-out: GI50 (concentration inhibiting 50% of cell growth)", "experimental": "(§1) The compounds generated were tested against a series of cell lines from tumours. It quantitatively determined the cell growth and the viability, using a colorimetric assay type, using the reaction with sulforhodamine B (SRB), according to the technique described by Faircloth et al. (Journal of Tissue and Culture Methods 1988, 11, 201-205).\n(§2) 96-well microtitre plates are inoculated with cells (5×10^3 cells per well) in aliquots of 195 μl of medium, incubating them during 18 h, in a medium without added compound, to allow the cells to adhere to the surface. Next, the compounds to be tested are added, in samples of 5 μl, at a range of concentrations of 10 to 10^−8 μg/ml, dissolved in DMSO/EtOH (0.2% in PS buffer). After 48 h exposure, the anti-tumour effect is measured using the Sulforhodamine B (SRB) technique: the cells are fixed adding 50 μl of cold […] (50%) (w/v) and it is incubated for 60 min. at 4° C. The plates are washed with deionized water and dried. 100 μl of SRB solution (0.4% w/v in 1% acetic acid) to each well and it is incubated during 10 min. at ambient temperature. The non-bound SRB is eliminated, washing with 1% acetic acid. The plates are air dried and the bound colorant is dissolved with Tris buffer. The optical densities are read in an automatic plate spectrophotometer reader at a wavelength of 490 nm.\n(§3) For the compounds of formula (III), (IV), (V), (VI), (VII), (VIII), (IX) and the compounds of formula (XII), (XIII), (XIV), (XV), (XVI) and (XVIII)."}, "[2]": {"tested_on": "A549 (lung)", "experiment": "SRB anti-tumour (growth inhibition) assay, A549", "type": "cell-based", "settings": "Homo sapiens, 48 h exposure, read-out: GI50 (concentration inhibiting 50% of cell growth)", "experimental": "as §1, §2, §3"}}}
{"smiles": "C[C@H]1O[C@@H](n2c3ccccc3c3c4c(c5c6ccccc6[nH]c5c32)CNC4=O)C[C@@H](O)[C@@H]1O", "note": "[formula (XV), N^13-1′-β-D-olivosyl-k252c]", "values": [{"measurement": "GI50", "setting": "[1]", "value": 3850, "unit": "nM"}, {"measurement": "GI50", "setting": "[2]", "value": 4980, "unit": "nM"}]}
{"smiles": "C[C@]12O[C@H](C[C@@H](O)[C@H]1O)n1c3ccccc3c3c4c(c5c6ccccc6n2c5c31)CNC4=O", "note": "[formula (XVIII), N^12-5′(S)-N^13-1′-(R)-L-digitoxosyl-k252c]", "values": [{"measurement": "GI50", "setting": "[1]", "value": 1520, "unit": "nM"}, {"measurement": "GI50", "setting": "[2]", "value": 1960, "unit": "nM"}]}
{"smiles": "C[C@]12O[C@H]([C@H](O)[C@H](O)[C@H]1O)n1c3ccccc3c3c4c(c5c6ccccc6n2c5c31)C(=O)NC4=O", "note": "[formula (VII), N^12-5′(S)-N^13-1′-(R)-L-rhamnosylarcyriaflavin]", "values": [{"measurement": "GI50", "setting": "[1]", "value": 2450, "unit": "nM"}, {"measurement": "GI50", "setting": "[2]", "value": 2040, "unit": "nM"}]}
{"smiles": "C[C@]12O[C@H]([C@H](O)[C@H](O)[C@H]1O)n1c3ccccc3c3c4c(c5c6ccccc6n2c5c31)CNC4=O", "note": "[formula (XVI), N^12-5′(S)-N^13-1′-(R)-L-rhamnosyl-k252c]", "values": [{"measurement": "GI50", "setting": "[1]", "value": 870, "unit": "nM"}, {"measurement": "GI50", "setting": "[2]", "value": 610, "unit": "nM"}]}
{"smiles": "C[C@@H]1O[C@@H](n2c3ccccc3c3c4c(c5c6ccccc6[nH]c5c32)C(=O)NC4=O)C[C@H](O)[C@H]1O", "note": "[formula (IV), N^13-1′-β-L-olivosylarcyriaflavin]", "values": [{"measurement": "GI50", "setting": "[1]", "value": 8790, "unit": "nM"}, {"measurement": "GI50", "setting": "[2]", "value": 8790, "unit": "nM"}]}
{"smiles": "C[C@H]1O[C@@H](n2c3ccccc3c3c4c(c5c6ccccc6[nH]c5c32)C(=O)NC4=O)C[C@@H](O)[C@@H]1O", "note": "[formula (VI), N^13-1′-β-D-olivosylarcyriaflavin]", "values": [{"measurement": "GI50", "setting": "[1]", "value": 2160, "unit": "nM"}, {"measurement": "GI50", "setting": "[2]", "value": 2210, "unit": "nM"}]}
{"smiles": "C[C@@H]1O[C@@H](n2c3ccccc3c3c4c(c5c6ccccc6[nH]c5c32)CNC4=O)C[C@@H](O)[C@H]1O", "note": "[formula (XIV), N^13-1′-β-L-digitoxosyl-k252c]", "values": [{"measurement": "GI50", "setting": "[1]", "value": 3400, "unit": "nM"}, {"measurement": "GI50", "setting": "[2]", "value": 3400, "unit": "nM"}]}
{"smiles": "C[C@@H]1O[C@@H](n2c3ccccc3c3c4c(c5c6ccccc6[nH]c5c32)CNC4=O)C[C@H](O)[C@H]1O", "note": "[formula (XIII), N^13-1′-β-L-olivosyl-k252c]", "values": [{"measurement": "GI50", "setting": "[1]", "value": 1520, "unit": "nM"}, {"measurement": "GI50", "setting": "[2]", "value": 1560, "unit": "nM"}]}
{"smiles": "C[C@@H]1O[C@@H](n2c3ccccc3c3c4c(c5c6ccccc6[nH]c5c32)C(=O)NC4=O)C[C@@H](O)[C@H]1O", "note": "[formula (V), N^13-1′-β-L-digitoxosylarcyriaflavin]", "values": [{"measurement": "GI50", "setting": "[1]", "value": 6390, "unit": "nM"}, {"measurement": "GI50", "setting": "[2]", "value": 4410, "unit": "nM"}]}
{"smiles": "C[C@@H]1O[C@@H](n2c3ccccc3c3c4c(c5c6ccccc6[nH]c5c32)C(=O)NC4=O)[C@H](O)[C@H](O)[C@H]1O", "note": "[formula (III), N^13-1′-β-L-rhamnosylarcyriaflavin]", "values": [{"measurement": "GI50", "setting": "[1]", "value": 2420, "unit": "nM"}, {"measurement": "GI50", "setting": "[2]", "value": 4180, "unit": "nM"}]}
{"smiles": "C[C@@H]1O[C@@H](n2c3ccccc3c3c4c(c5c6ccccc6[nH]c5c32)CNC4=O)[C@H](O)[C@H](O)[C@H]1O", "note": "[formula (XII), N^13-1′-β-L-rhamnosyl-k252c]", "values": [{"measurement": "GI50", "setting": "[1]", "value": 2100, "unit": "nM"}, {"measurement": "GI50", "setting": "[2]", "value": 2840, "unit": "nM"}]}
{"smiles": "C[C@]12O[C@H](C[C@H](O)[C@H]1O)n1c3ccccc3c3c4c(c5c6ccccc6n2c5c31)C(=O)NC4=O", "note": "[formula (VIII), N^12-5′(S)-N^13-1′-(R)-L-olivosylarcyriaflavin]", "values": [{"measurement": "GI50", "setting": "[1]", "value": 11200, "unit": "nM"}, {"measurement": "GI50", "setting": "[2]", "value": 5730, "unit": "nM"}]}
{"smiles": "C[C@]12O[C@H](C[C@@H](O)[C@H]1O)n1c3ccccc3c3c4c(c5c6ccccc6n2c5c31)C(=O)NC4=O", "note": "[formula (IX), N^12-5′(S)-N^13-1′-(R)-L-digitoxosylarcyriaflavin]", "values": [{"measurement": "GI50", "setting": "[1]", "value": 8160, "unit": "nM"}, {"measurement": "GI50", "setting": "[2]", "value": 5510, "unit": "nM"}]}
{"smiles": "C[C@]12O[C@H](C[C@H](O)[C@H]1O)n1c3ccccc3c3c4c(c5c6ccccc6n2c5c31)CNC4=O", "note": "[formula (XVII), N^12-5′(S)-N^13-1′-(R)-L-olivosyl-k252c]", "values": [{"measurement": "GI50", "setting": "[1]", "value": 1210, "unit": "nM"}, {"measurement": "GI50", "setting": "[2]", "value": 1020, "unit": "nM"}]}
